In ChEMBL document CHEMBL4417623, “Methods and compositions for inhibiting rho/mrtf-mediated diseases and conditions” (2015):
Active and inactive are the calls of the source. The rule behind the calls is not given here.

Legend:
[1] = Inhibition of Rho/MRTF/SRF mediated signaling (unknown origin) assessed as reduction in MRTF/SRF-regulated gene transcription by SRE-luciferase expression based assay; set-up: species or system Homo sapiens
Mus musculus [2] = test: Suppression of fibrosis in C57bl/6 mouse model of bleomycin-induced dermal fibrosis at 100 mg/kg, bid dosed via oral gavage; type: functional, organism-based
Homo sapiens = organism: Homo sapiens; test: Inhibition of Rho/MRTF/SRF mediated signaling in human dermal fibroblasts assessed as suppression of myofibroblast activation by measuring reduction in TGFbeta-induced alpha-SMA expression incubated for 3 days relative to perfenidone
Mus musculus [3] = organism: Mus musculus; test: Inhibition of Rho/MRTF/SRF mediated signaling in mouse NIH/3T3 cells assessed as inhibition of fibrosis markers by measuring reduction in LPA-induced ACTA2 mRNA expression by qRT-PCR assay relative to perfenidone; type: cell-based
Mus musculus [4] = organism: Mus musculus; test: Inhibition of Rho/MRTF/SRF mediated signaling in mouse NIH/3T3 cells assessed as inhibition of fibrosis markers by measuring reduction in LPA-induced COL1A2-hn mRNA expression by qRT-PCR assay relative to perfenidone; type: cell-based
[5] = Inhibition of Rho/MRTF/SRF mediated signaling (unknown origin) assessed as reduction in MRTF/SRF-regulated gene transcription by SRE-luciferase expression based assay relative to control; set-up: species or system Homo sapiens

Compound	IC50 [1]	further results
O=C(O)CCSc1nnc(-c2ccc(Cl)cc2)o1	0.34 µM	–
O=C(O)CCSc1nnc(-c2ccccc2)o1	3.5 µM	–
O=C(Nc1ccc(Cl)cc1)C1CCCN(C(=O)c2cccc(-c3ccco3)c2)C1 (stereo unspecified)	–	Activity (Mus musculus [2]): Active; fold change (FC) (Homo sapiens): 100; fold change (FC) (Mus musculus [3]): 100; fold change (FC) (Mus musculus [4]): 100
Cc1cccc(-c2nnc(SCCC(=O)O)o2)c1	0.18 µM	–
O=C(O)CCSc1nnc(-c2cccc(Cl)c2)o1	1.5 µM	–
CC(ONC(=O)c1cc(C(F)(F)F)cc(C(F)(F)F)c1)C(=O)Nc1ccc(Cl)cc1 (stereo unspecified)	–	IC50 [5]: 1 µM
COc1ccc(-c2nnc(SCCC(=O)O)o2)cc1	0.16 µM	–
COc1cccc(-c2nnc(SCCC(=O)O)o2)c1	3.6 µM	–
Cc1ccc(-c2nnc(SCCC(=O)O)o2)cc1	0.034 µM	–

Second part, led by results:

IC50 [1]	Compound	further results
0.0026 µM	COc1ccc(-c2nnc(SCCC(=O)O)o2)c(Cl)c1	–
0.0018 µM	O=C(O)CCCSc1nnc(-c2ccc(Cl)cc2Cl)o1	–
0.0015 µM	Cc1ccc(-c2nnc(SCCC(=O)O)o2)c(Cl)c1	–
0.0026 µM	CCOC(=O)CCSc1nnc(-c2ccc(Cl)cc2Cl)o1	–
